Laboratory results taken from patent US9718790B2, “Triazine derivative and pharmaceutical composition having an analgesic activity comprising the same” (SHIONOGI & CO., LTD., priority 2010, dated 2017).

target: human P2X3 receptor (Homo sapiens (Human), UniProt P56373); test: Evaluation of human P2X3 receptor inhibitory activity (Fluo-3 calcium fluorescence, FDSS 3000, ATP stimulation); format: cell-based; details: C6BU-1 cells stably expressing human P2X3 receptor;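 also: stimulus was 50 nM ATP with fluorescence followed for 3 min, and the response per well was peak post-ATP fluorescence divided by the reading at measurement start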
Sequence (P56373 whole entry): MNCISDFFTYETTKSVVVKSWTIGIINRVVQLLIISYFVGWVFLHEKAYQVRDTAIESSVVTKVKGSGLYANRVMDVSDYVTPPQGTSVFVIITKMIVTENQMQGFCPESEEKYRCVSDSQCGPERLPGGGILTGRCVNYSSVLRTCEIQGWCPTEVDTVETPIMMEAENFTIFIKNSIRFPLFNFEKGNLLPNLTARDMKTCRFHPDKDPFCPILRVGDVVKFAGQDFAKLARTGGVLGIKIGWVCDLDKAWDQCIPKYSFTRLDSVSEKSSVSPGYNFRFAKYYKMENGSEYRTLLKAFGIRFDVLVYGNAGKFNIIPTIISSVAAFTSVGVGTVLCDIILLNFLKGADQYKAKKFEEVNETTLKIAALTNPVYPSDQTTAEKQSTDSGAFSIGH

Row | SMILES | IC50
1 | COC(=O)[C@H](C)[C@H](C)n1c(=O)[nH]/c(=N\c2ccc(OC3CCC3)cc2)n(Cc2ccc(C)cc2)c1=O [Compound I-1379] | 10 nM
2 | COC(=O)[C@H](C)[C@H](C)n1c(=O)[nH]/c(=N\c2ccc(N3CCCCC3)cc2)n(Cc2ccc(Cl)cc2)c1=O [Compound I-1380] | 26 nM
3 | COC(=O)[C@H](C)[C@H](C)n1c(=O)[nH]/c(=N\c2ccc(N3CCCCC3)cc2)n(Cc2ccc(C)cc2)c1=O [Compound I-1381] | 20 nM
4 | CCc1nc2ccc(/N=c3\[nH]c(=O)n(C[C@H](C)C(=O)O)c(=O)n3Cc3ccc(Cl)cc3)cc2o1 [Compound I-1382] | 257 nM
5 | CC(C)COc1ccc(/N=c2\[nH]c(=O)n([C@@H](C)[C@@H](C)C(=O)O)c(=O)n2Cc2ccc(Cl)cc2)cc1 [Compound I-1386] | 28 nM
6 | Cc1ccc(Cn2c(=O)n([C@@H](C)[C@@H](C)C(=O)O)c(=O)[nH]/c2=N\c2ccc(OCC(C)C)cc2)cc1 [Compound I-1387] | 44 nM
7 | Cc1ccc(Oc2ccc(/N=c3\[nH]c(=O)n([C@@H](C)[C@@H](C)C(=O)O)c(=O)n3Cc3ccc(Cl)cc3)cc2)cn1 [Compound I-1388] | 9 nM
8 | Cc1ccc(Oc2ccc(/N=c3\[nH]c(=O)n([C@H](C)[C@H](C)C(=O)O)c(=O)n3Cc3ccc(Cl)cc3)cc2)cn1 [Compound I-1389] | 12 nM
9 | C[C@@H](C(=O)O)[C@H](C)n1c(=O)[nH]/c(=N\c2ccc(Oc3cccnc3)cc2)n(Cc2ccc(Cl)cc2)c1=O [Compound I-1390] | 15 nM
10 | C[C@@H](C(=O)O)[C@H](C)n1c(=O)[nH]/c(=N\c2ccc(OC3CCC3)cc2)n(Cc2ccc(Cl)cc2)c1=O [Compound I-1391] | 16 nM
11 | Cc1ccc(Cn2c(=O)n([C@@H](C)[C@@H](C)C(=O)O)c(=O)[nH]/c2=N\c2ccc(OC3CCC3)cc2)cc1 [Compound I-1392] | 18 nM
12 | C[C@@H](C(=O)O)[C@H](C)n1c(=O)[nH]/c(=N\c2ccc(N3CCCCC3)cc2)n(Cc2ccc(Cl)cc2)c1=O [Compound I-1393] | 35 nM
13 | Cc1ccc(Cn2c(=O)n([C@@H](C)[C@@H](C)C(=O)O)c(=O)[nH]/c2=N\c2ccc(N3CCCCC3)cc2)cc1 [Compound I-1394] | 44 nM
14 | Cc1ccc(Cn2c(=O)n(CCCC(=O)O)c(=O)[nH]/c2=N\c2ccc(Oc3ccc(C)nc3)cc2)cc1 [Compound I-1395] | 23 nM
15 | COC(=O)CCCn1c(=O)[nH]/c(=N\c2ccc(Oc3ccnc(C)c3)cc2)n(Cc2ccc(Cl)cc2)c1=O [Compound I-1396] | 4 nM
16 | CCOC(=O)CCCn1c(=O)[nH]/c(=N\c2ccc(Oc3ccnc(C)c3)cc2)n(Cc2ccc(C)cc2)c1=O [Compound I-1397] | 3 nM
17 | COC(=O)[C@@H](C)Cn1c(=O)[nH]/c(=N\c2cnc(OC3CCC3)c(Cl)c2)n(Cc2ccc(C)cc2)c1=O [Compound I-1398] | 25 nM
18 | COC(=O)[C@@H](C)Cn1c(=O)[nH]/c(=N\c2cnc(OC3CCC3)c(Cl)c2)n(Cc2ccc(Cl)cc2)c1=O [Compound I-1399] | 50 nM
19 | CCOC(=O)CCn1c(=O)[nH]/c(=N\c2ccc(OC3CCC3)c(C)c2)n(Cc2ccc(C)cc2)c1=O [Compound I-1400] | 13 nM
20 | CCOC(=O)CCn1c(=O)[nH]/c(=N\c2ccc(OC3CCC3)c(C)c2)n(Cc2ccc(Cl)cc2)c1=O [Compound I-1401] | 22 nM
21 | COC(=O)[C@H](C)[C@H](C)n1c(=O)[nH]/c(=N\c2ccc(OC3CCC3)c(C)c2)n(Cc2ccc(C)cc2)c1=O [Compound I-1402] | 33 nM

Row | SMILES | IC50
22 | COC(=O)[C@H](C)[C@H](C)n1c(=O)[nH]/c(=N\c2ccc(OC3CCC3)c(C)c2)n(Cc2ccc(Cl)cc2)c1=O [Compound I-1403] | 50 nM
23 | Cc1cc(Oc2ccc(/N=c3\[nH]c(=O)n(CCCC(=O)O)c(=O)n3Cc3ccc(Cl)cc3)cc2)ccn1 [Compound I-1404] | 24 nM
24 | Cc1ccc(Cn2c(=O)n(CCCC(=O)O)c(=O)[nH]/c2=N\c2ccc(Oc3ccnc(C)c3)cc2)cc1 [Compound I-1405] | 26 nM
25 | Cc1ccc(Cn2c(=O)n(CCC(=O)O)c(=O)[nH]/c2=N\c2ccc(OC3CCC3)c(C)c2)cc1 [Compound I-1406] | 64 nM
26 | Cc1cc(/N=c2\[nH]c(=O)n(CCC(=O)O)c(=O)n2Cc2ccc(Cl)cc2)ccc1OC1CCC1 [Compound I-1407] | 36 nM
27 | Cc1ccc(Cn2c(=O)n([C@@H](C)[C@@H](C)C(=O)O)c(=O)[nH]/c2=N\c2ccc(OC3CCC3)c(C)c2)cc1 [Compound I-1408] | 16 nM
28 | Cc1cc(/N=c2\[nH]c(=O)n([C@@H](C)[C@@H](C)C(=O)O)c(=O)n2Cc2ccc(Cl)cc2)ccc1OC1CCC1 [Compound I-1409] | 17 nM
29 | Cc1ccc(Cn2c(=O)n(C[C@H](C)C(=O)O)c(=O)[nH]/c2=N\c2cnc(OC3CCC3)c(Cl)c2)cc1 [Compound I-1410] | 56 nM
30 | C[C@@H](Cn1c(=O)[nH]/c(=N\c2cnc(OC3CCC3)c(Cl)c2)n(Cc2ccc(Cl)cc2)c1=O)C(=O)O [Compound I-1411] | 58 nM
31 | O=C(O)CCn1c(=O)[nH]/c(=N\c2ccc(Oc3cncc(F)c3)cc2)n(Cc2ccc(Cl)cc2)c1=O [Compound I-1412] | 11 nM
32 | Cc1ccc(Oc2ccc(/N=c3\[nH]c(=O)n(CCC(=O)O)c(=O)n3Cc3ccc(Cl)cc3)cc2)c(C)n1 [Compound I-1413] | 72 nM
33 | CC(C)NC(=O)c1ccc(/N=c2\[nH]c(=O)n(C[C@H](C)C(=O)O)c(=O)n2Cc2ccc(Cl)cc2)cc1Cl [Compound I-1414] | 986 nM
34 | COC(=O)[C@@H](C)Cn1c(=O)[nH]/c(=N\c2ccc(NC(C)=O)cc2)n(Cc2ccc(C)cc2)c1=O [Compound I-1415] | 532 nM
35 | COC(=O)[C@@H](C)Cn1c(=O)[nH]/c(=N\c2ccc(NS(C)(=O)=O)cc2)n(Cc2ccc(C)cc2)c1=O [Compound I-1416] | 141 nM
36 | Cc1ccc(Cn2c(=O)n(C[C@H](C)C(=O)O)c(=O)[nH]/c2=N\c2ccc(NS(C)(=O)=O)cc2)cc1 [Compound I-1417] | 207 nM
37 | COC(=O)[C@@H](C)Cn1c(=O)[nH]/c(=N\c2ccc(NC(=O)C(C)C)c(Cl)c2)n(Cc2ccc(C)cc2)c1=O [Compound I-1419] | 304 nM
38 | Cc1ccc(Cn2c(=O)n(C[C@H](C)C(=O)O)c(=O)[nH]/c2=N\c2ccc(NC(=O)C(C)C)c(Cl)c2)cc1 [Compound I-1420] | 607 nM
39 | CCOC(=O)CCn1c(=O)[nH]/c(=N\c2ccc(OC(C)C)c(COC)c2)n(Cc2ccc(C)cc2)c1=O [Compound I-1421] | 883 nM
40 | COCc1cc(/N=c2\[nH]c(=O)n(CC(C)(C)C(=O)OC)c(=O)n2Cc2ccc(Cl)cc2)ccc1OC(C)C [Compound I-1422] | 529 nM
41 | COC(=O)C(C)(C)Cn1c(=O)[nH]/c(=N\c2ccc(OC(C)C)c(CO)c2)n(Cc2ccc(Cl)cc2)c1=O [Compound I-1423] | 41 nM
42 | CCOC(=O)CCn1c(=O)[nH]/c(=N\c2ccc(OC(C)C)c(CO)c2)n(Cc2ccc(C)cc2)c1=O [Compound I-1424] | 35 nM

Row | SMILES | IC50
43 | CCOC(=O)CCn1c(=O)[nH]/c(=N\c2ccc(OC(C)C)c(COC(C)=O)c2)n(Cc2ccc(C)cc2)c1=O [Compound I-1425] | 50 nM
44 | CCOC(=O)CCn1c(=O)[nH]/c(=N\c2ccc(CC(C)C)c(Cl)c2)n(Cc2ccc(C)cc2)c1=O [Compound I-1426] | 50 nM
45 | Cc1ccc(Cn2c(=O)n(CCC(=O)O)c(=O)[nH]/c2=N\c2ccc(CC(C)C)c(Cl)c2)cc1 [Compound I-1427] | 8 nM
46 | COCc1cc(/N=c2\[nH]c(=O)n(CCC(=O)O)c(=O)n2Cc2ccc(C)cc2)ccc1OC(C)C [Compound I-1428] | 926 nM
47 | Cc1ccc(Cn2c(=O)n(CCC(=O)O)c(=O)[nH]/c2=N\c2ccc(OC(C)C)c(CO)c2)cc1 [Compound I-1429] | 232 nM
48 | COCc1cc(/N=c2\[nH]c(=O)n(CC(C)(C)C(=O)O)c(=O)n2Cc2ccc(Cl)cc2)ccc1OC(C)C [Compound I-1430] | 709 nM
49 | CC(C)Oc1ccc(/N=c2\[nH]c(=O)n(CC(C)(C)C(=O)O)c(=O)n2Cc2ccc(Cl)cc2)cc1CO [Compound I-1431] | 242 nM
50 | COC(=O)[C@@H](C)Cn1c(=O)[nH]/c(=N\c2ccc(Oc3ccnc(O)c3)cc2)n(Cc2ccc(C)cc2)c1=O [Compound I-1432] | 2 nM
51 | CCOC(=O)CCn1c(=O)[nH]/c(=N\c2ccc(Oc3ccnc(O)c3)cc2)n(Cc2ccc(Cl)cc2)c1=O [Compound I-1434] | 2 nM
52 | COC(=O)[C@H](C)[C@H](C)n1c(=O)[nH]/c(=N\c2ccc(CC(C)C)c(Cl)c2)n(Cc2ccc(Cl)cc2)c1=O [Compound I-1435] | 61 nM
53 | COC(=O)[C@H](C)[C@H](C)n1c(=O)[nH]/c(=N\c2ccc(CC(C)C)c(Cl)c2)n(Cc2ccc(C)cc2)c1=O [Compound I-1436] | 54 nM
54 | COC(=O)[C@@H](C)[C@@H](C)n1c(=O)[nH]/c(=N\c2ccc(CC(C)C)c(Cl)c2)n(Cc2ccc(Cl)cc2)c1=O [Compound I-1438] | 63 nM
55 | COC(=O)[C@@H](C)[C@@H](C)n1c(=O)[nH]/c(=N\c2ccc(CC(C)C)c(Cl)c2)n(Cc2ccc(C)cc2)c1=O [Compound I-1439] | 39 nM
56 | Cc1ccc(Cn2c(=O)n(C[C@H](C)C(=O)O)c(=O)[nH]/c2=N\c2ccc(Oc3ccnc(O)c3)cc2)cc1 [Compound I-1440] | 6 nM
57 | O=C(O)CCn1c(=O)[nH]/c(=N\c2ccc(Oc3ccnc(O)c3)cc2)n(Cc2ccc(Cl)cc2)c1=O [Compound I-1441] | 9 nM
58 | CC(C)Cc1ccc(/N=c2\[nH]c(=O)n([C@@H](C)[C@@H](C)C(=O)O)c(=O)n2Cc2ccc(Cl)cc2)cc1Cl [Compound I-1442] | 8 nM
59 | Cc1ccc(Cn2c(=O)n([C@@H](C)[C@@H](C)C(=O)O)c(=O)[nH]/c2=N\c2ccc(CC(C)C)c(Cl)c2)cc1 [Compound I-1443] | 6 nM
60 | Cc1ccc(Cn2c(=O)n([C@H](C)[C@H](C)C(=O)O)c(=O)[nH]/c2=N\c2ccc(CC(C)C)c(Cl)c2)cc1 [Compound I-1444] | 4 nM
61 | CC(C)Cc1ccc(/N=c2\[nH]c(=O)n([C@H](C)[C@H](C)C(=O)O)c(=O)n2Cc2ccc(Cl)cc2)cc1Cl [Compound I-1445] | 4 nM
62 | COC(=O)C(C)(C)Cn1c(=O)[nH]/c(=N\c2ccc(CC(C)C)c(Cl)c2)n(Cc2ccc(C)cc2)c1=O [Compound I-1447] | 6 nM
